From patent publication US8871767B2, “2-arylimidazo[1,2-B]pyridazine, 2-phenylimidazo[1,2-A]pyridine, and 2-phenylimidazo[1,2-A]pyrazine derivatives” (Hengrui (USA) Ltd., priority 2010, dated 2014)

These compounds were tested on Hedgehog pathway activation (GLi-luciferase reporter) in Shh Light II reporter cells (assay: Hedgehog pathway activation on Shh Light II reporter cells measured by luciferase activity). Settings: Mus musculus, Shh Light II, hShh activation, read-out: Shh (IC50, inhibition of Hedgehog pathway activation).
Assay type: cell-based
Protocol: Hedgehog conditioned media was obtained by transfecting 293H cells with the full length gene encoding human Sonic Hedgehog (hShh) inserted into the pCMV6 expression vector, which contains a neomycin selectable marker and expresses the protein of interest with a C-terminal FLAG affinity tag. After selection in G418 containing media, conditioned media from Hedgehog expressing clones were tested for the ability to activate the hedgehog-responsive GLi-luciferase reporter in the Shh Light II cell line obtained by license from John Hopkins University (Taipale J, et al. Effects of oncogenic mutations in Smoothened and Patched can be reversed by cyclopamine. Nature 406: 1005-1009, 2000).
A test compound library was screened against hShh and 500 nM SAG (a direct agonist of the Smoothened receptor) activated 10T1/2/Smo#3 cells and Shh Light II reporter cells for the ability to block Hedgehog pathway activation. Concurrently, cell viability was measured by utilizing Celltiter-Blue® (Promega, Madison Wis.) viability assay. Active compounds were defined as those that inhibited Hedgehog signaling by greater than 50% with no concurrent loss in cell viability.
Their inhibitory activity against Hedgehog pathway activation on 10T1/2/Smo#3 cells as measured by ALP activity and Shh Light II reporter cells as measured by luciferase activity is shown in Table 1 below. In Table 1, +++ stands for an IC50 value that is less than 0.3 μM, ++ between 0.3 and 3 μM, + between 3 and 30 μM.
Additional data for compounds of the invention is shown below in Table 2. Their inhibitory activities against Hedgehog pathway activation are shown as IC50 values in μM on 10T1/2/Smo#3 cells as measured by ALP activity, or on Shh Light II reporter cells as measured by luciferase activity (hShh activation).

| SMILES | IC50 [nM] |
| --- | --- |
| COc1ccc2nc(-c3ccc(C)c(NC(=O)c4ccc(S(C)(=O)=O)cc4Cl)c3)cn2n1 [Example 95, 2-chloro-N-(5-(6-methoxyimidazo[1,2-b]pyridazin-2-yl)-2-methylphenyl)-4-(methylsulfonyl)benzamide] | 7860 |
| Cc1ccc(-c2cn3nc(N4CCC(F)(F)C4)ccc3n2)cc1NC(=O)C(C)(C)C [Example 277, N-(5-(6-(3,3-difluoropyrrolidin-1-yl)imidazo[1,2-b]pyridazin-2-yl)-2-methylphenyl)pivalamide] | 350 |
| Cc1ccc(-c2cn3nc(N4CCC(F)(F)CC4)ccc3n2)cc1NC(=O)C(C)(C)C [Example 282, N-(5-(6-(4,4-difluoropiperidin-1-yl)imidazo[1,2-b]pyridazin-2-yl)-2-methylphenyl)pivalamide] | 1450 |
| CC(C)(C)C(=O)Nc1cc(-c2cn3nc(NC4CCC(O)CC4)ccc3n2)ccc1C(F)(F)F (stereo not shown) [Example 314, N-(5-(6-(4-hydroxycyclohexylamino)imidazo[1,2-b]pyridazin-2-yl)-2-(trifluoromethyl)phenyl)pivalamide] | 346 |
| CC(C)(C)C(=O)Nc1cc(-c2cn3nc(N4CC(F)(F)C4)ccc3n2)ccc1C(F)(F)F [Example 315, N-(5-(6-(3,3-difluoroazetidin-1-yl)imidazo[1,2-b]pyridazin-2-yl)-2-(trifluoromethyl)phenyl)pivalamide] | 807 |
| CN1CCN(c2ccc3nc(-c4ccc(C(F)(F)F)c(NC(=O)C(C)(C)C)c4)cn3n2)CC1 [Example 316, N-(5-(6-(4-methylpiperazin-1-yl)imidazo[1,2-b]pyridazin-2-yl)-2-(trifluoromethyl)phenyl)pivalamide] | 937 |
| CCN1CCN(c2ccc3nc(-c4ccc(C(F)(F)F)c(NC(=O)C(C)(C)C)c4)cn3n2)CC1 [Example 317, N-(5-(6-(4-ethylpiperazin-1-yl)imidazo[1,2-b]pyridazin-2-yl)-2-(trifluoromethyl)phenyl)pivalamide] | 1250 |
| CC(C)(C)C(=O)Nc1cc(-c2cn3nc(N4CCC(N)C4)ccc3n2)ccc1C(F)(F)F (stereo not shown) [Example 318, N-(5-(6-(3-aminopyrrolidin-1-yl)imidazo[1,2-b]pyridazin-2-yl)-2-(trifluoromethyl)phenyl)pivalamide] | 203 |
| Cc1noc(C)c1-c1ccc2nc(-c3ccc(C(F)(F)F)c(NC(=O)C(C)(C)C)c3)cn2n1 [Example 326, N-(5-(6-(3,5-dimethylisoxazol-4-yl)imidazo[1,2-b]pyridazin-2-yl)-2-(trifluoromethyl)phenyl)pivalamide] | 217 |
| CC(C)(C)OC(=O)N1CCN(c2ccc3nc(-c4ccc(C(F)(F)F)c(NC(=O)C(C)(C)C)c4)cn3n2)CC1 [Example 327, tert-butyl 4-(2-(3-pivalamido-4-(trifluoromethyl)phenyl)imidazo[1,2-b]pyridazin-6-yl)piperazine-1-carboxylate] | 484 |
| CC(C)(C)C(=O)Nc1cc(-c2cn3nc(N4CCNCC4)ccc3n2)ccc1C(F)(F)F [Example 328, N-(5-(6-(piperazin-1-yl)imidazo[1,2-b]pyridazin-2-yl)-2-(trifluoromethyl)phenyl)pivalamide] | 3540 |
| CC1CNCCN1c1ccc2nc(-c3ccc(C(F)(F)F)c(NC(=O)C(C)(C)C)c3)cn2n1 (stereo not shown) [Example 329, N-(5-(6-(2-methylpiperazin-1-yl)imidazo[1,2-b]pyridazin-2-yl)-2-(trifluoromethyl)phenyl)pivalamide] | 2020 |
| CC(C)(C)C(=O)Nc1cc(-c2cn3nc(NC4CCNCC4)ccc3n2)ccc1C(F)(F)F [Example 330, N-(5-(6-(piperidin-4-ylamino)imidazo[1,2-b]pyridazin-2-yl)-2-(trifluoromethyl)phenyl)pivalamide] | 676 |
| CC(C)(C)OC(=O)NC1CCN(c2ccc3nc(-c4ccc(C(F)(F)F)c(NC(=O)C(C)(C)C)c4)cn3n2)CC1 [Example 331, tert-butyl 1-(2-(3-pivalamido-4-(trifluoromethyl)phenyl)imidazo[1,2-b]pyridazin-6-yl)piperidin-4-ylcarbamate] | 478 |
| CC(C)(C)C(=O)Nc1cc(-c2cn3nc(N4CCC(N)CC4)ccc3n2)ccc1C(F)(F)F [Example 332, N-(5-(6-(4-aminopiperidin-1-yl)imidazo[1,2-b]pyridazin-2-yl)-2-(trifluoromethyl)phenyl)pivalamide] | 698 |
| CC(C)(C)C(=O)Nc1cc(-c2cn3nc(NC4CCCCC4O)ccc3n2)ccc1C(F)(F)F (stereo not shown) [Example 333, N-(5-(6-(2-hydroxycyclohexylamino)imidazo[1,2-b]pyridazin-2-yl)-2-(trifluoromethyl)phenyl)pivalamide] | 893 |
| CC(C)(C)C(=O)Nc1cc(-c2cn3nc(-c4cccnc4N4CCOCC4)ccc3n2)ccc1C(F)(F)F [Example 335, N-(5-(6-(2-morpholinopyridin-3-yl)imidazo[1,2-b]pyridazin-2-yl)-2-(trifluoromethyl)phenyl)pivalamide] | 1610 |
| CC(C)(C)C(=O)Nc1cc(-c2cn3nc(N4CCCC(O)C4)ccc3n2)ccc1C(F)(F)F (stereo not shown) [Example 336, N-(5-(6-(3-hydroxypiperidin-1-yl)imidazo[1,2-b]pyridazin-2-yl)-2-(trifluoromethyl)phenyl)pivalamide] | 230 |

Other lines, results leading:

| IC50 [nM] | SMILES |
| --- | --- |
| 1480 | Cc1ccc(F)c(-c2ccc3nc(-c4ccc(C(F)(F)F)c(NC(=O)C(C)(C)C)c4)cn3n2)c1 [Example 226, N-(5-(6-(2-fluoro-5-methylphenyl)imidazo[1,2-b]pyridazin-2-yl)-2-(trifluoromethyl)phenyl)pivalamide] |
| 325 | COc1ccc(F)c(-c2ccc3nc(-c4ccc(C(F)(F)F)c(NC(=O)C(C)(C)C)c4)cn3n2)c1 [Example 228, N-(5-(6-(2-fluoro-5-methoxyphenyl)imidazo[1,2-b]pyridazin-2-yl)-2-(trifluoromethyl)phenyl)pivalamide] |
| 313 | COc1cccc(-c2ccc3nc(-c4ccc(C(F)(F)F)c(NC(=O)C(C)(C)C)c4)cn3n2)c1 [Example 229, N-(5-(6-(3-methoxyphenyl)imidazo[1,2-b]pyridazin-2-yl)-2-(trifluoromethyl)phenyl)pivalamide] |
| 1550 | CC(C)(C)C(=O)Nc1cc(-c2cn3nc(-c4cccs4)ccc3n2)ccc1C(F)(F)F [Example 230, N-(5-(6-(thiophen-2-yl)imidazo[1,2-b]pyridazin-2-yl)-2-(trifluoromethyl)phenyl)pivalamide] |
| 1800 | Cc1ccc(-c2cn3nc(-c4cc(CO)ccc4F)ccc3n2)cc1NC(=O)C(C)(C)C [Example 275, N-(5-(6-(2-fluoro-5-(hydroxymethyl)phenyl)imidazo[1,2-b]pyridazin-2-yl)-2-methylphenyl)pivalamide] |
| 1960 | Cc1ccc(-c2cn3nc(-c4ccccc4O)ccc3n2)cc1NC(=O)C(C)(C)C [Example 276, N-(5-(6-(2-hydroxyphenyl)imidazo[1,2-b]pyridazin-2-yl)-2-methylphenyl)pivalamide] |
| 9260 | C#Cc1ccc(-c2cn3nc(-c4ccccc4F)ccc3n2)cc1N [Example 320, 2-ethynyl-5-(6-(2-fluorophenyl)imidazo[1,2-b]pyridazin-2-yl)aniline] |
| 917 | Cc1ccc(-c2cn3nc(-c4ccc(C(F)(F)F)nc4)ccc3n2)cc1NC(=O)C(C)(C)C [Example 322, N-(2-methyl-5-(6-(6-(trifluoromethyl)pyridin-3-yl)imidazo[1,2-b]pyridazin-2-yl)phenyl)pivalamide] |
| 2580 | CC(C)(C)C(=O)Nc1cc(-c2cn3nc(-c4cccc(CO)c4)ccc3n2)ccc1C(F)(F)F [Example 323, N-(5-(6-(3-(hydroxymethyl)phenyl)imidazo[1,2-b]pyridazin-2-yl)-2-(trifluoromethyl)phenyl)pivalamide] |
| 1460 | CC(C)c1ccccc1-c1ccc2nc(-c3ccc(C(F)(F)F)c(NC(=O)C(C)(C)C)c3)cn2n1 [Example 324, N-(5-(6-(2-isopropylphenyl)imidazo[1,2-b]pyridazin-2-yl)-2-(trifluoromethyl)phenyl)pivalamide] |
| 740 | CC(C)(C)C(=O)Nc1cc(-c2cn3nc(-c4cccc(S(C)(=O)=O)c4)ccc3n2)ccc1C(F)(F)F [Example 325, N-(5-(6-(3-(methylsulfonyl)phenyl)imidazo[1,2-b]pyridazin-2-yl)-2-(trifluoromethyl)phenyl)pivalamide] |
| 398 | CCc1ccc(-c2cn3nc(-c4ccc(C(F)(F)F)nc4)ccc3n2)cc1NC(=O)C(C)(C)C [Example 338, N-(2-ethyl-5-(6-(6-(trifluoromethyl)pyridin-3-yl)imidazo[1,2-b]pyridazin-2-yl)phenyl)pivalamide] |

Same assay, conditions: hShh activation, read-out: Shh (IC50, inhibition of Hedgehog pathway activation)

| IC50 [nM] | SMILES |
| --- | --- |
| 347 | CC(C)(C)C(=O)Nc1cc(-c2cn3nc(N4CCC(N)C4)ccc3n2)ccc1C(F)(F)F (stereo not shown) [Example 319, N-(5-(6-(3-aminopyrrolidin-1-yl)imidazo[1,2-b]pyridazin-2-yl)-2-(trifluoromethyl)phenyl)pivalamide] |
